Experimental data published in patent publication US6613322B2, “Method for treating a subject suffering from conditions associated with an extracellular zinc sphingomyelinase” (The Trustees of Columbia University in the City of New York, priority 1997, dated 2003).

Tests used:
L-SMase of HUVECs = experiment: Cytokine regulation of L-SMase activity in HUVEC cell homogenates; type: cell-based, human; settings: cytokine-treated endothelial cells
Protocol: FIGS. 23A-B. Cytokine regulation of S- and L-SMase of HUVECs. […] Conditioned media (FIG. 23A) and cell homogenates (FIG. 23B) from these cells were then assayed for SMase activity in the presence or absence of 0.1 mM ZnCl2, respectively.
Cells—Primary cultures of HUVEC were obtained from fresh umbilical cords and maintained in cell culture as previously described (31). Human coronary artery endothelial cells from a donor were purchased from Clonetics Corp. (San Diego, Calif.; cat. # CC-2585, Strain #3033). The cells were grown in endothelial basal media (EBM) (Clonetics) supplemented with 10% HI-FES; 10 μg endothelial cell growth supplement/ml (Sigma; cat. # E0760) and 50 μg gentamicin/ml. Primary cultures of bovine aortic endothelial, cells were established and subcultured as described previously (32). […]

[1] = test system: mannose-phosphorylated S-SMase of HUVECs; experiment: Binding of HUVEC S-SMase to mannose-phosphate receptor column; type: cell-based, human; settings: conditioned medium of IL-1β-treated HUVECs; Western blot densitometry
Excerpt: We recently reported that S-SMase is secreted through a Golgi pathway that bypasses the lysosomal pathway of L-SMase. Thus, we considered three general mechanisms to explain how IL-Lβ increases the secretion of SMase: secretion of mannose-phosphorylated SMase during trafficking of the ASM precursor to lysosomes (e.g., due to saturation of the mannose-6-phosphate receptor—cf. Ref. (46)), induction of secretion of intralysosomal SMase (cf. Ref. (47)), or increased trafficking of the ASM precursor protein through the normal Golgi secretory pathway. To begin, we assessed the mannose-phosphorylation state of S-SMase from control and IL-1β-treated HUVECs by passing conditioned media from these cells over a mannose-phosphate receptor column (cf. Ref. (48)). By Western blot analysis quantified by densitometry, only 7.9% of control S-SMase and 4.9% of S-SMase from the cytokine-treated cells bound to the column and could be eluted with mannose-6-phosphate. As a control for this experiment, we have previously shown that the massive secretion of SMase by ASM-transfected CHO cells can be partly explained by secretion of mannose-phosphorylated SMase due to saturation of the mannose-6-phosphate receptor^2; when conditioned medium from these cells was passed over the receptor column, 40.3% bound and could be eluted with mannose-6-phosphate. […]

S-SMase = molecular target: T1, S-SMase (Homo sapiens, UniProt P17405); experiment: SMase assay of endothelial cell (HUVEC) conditioned medium; type: biochemical; set-up: endogenous in cells; host or cells: primary HUVEC, 24-h serum-free conditioned medium
T1 sequence (P17405 47-631): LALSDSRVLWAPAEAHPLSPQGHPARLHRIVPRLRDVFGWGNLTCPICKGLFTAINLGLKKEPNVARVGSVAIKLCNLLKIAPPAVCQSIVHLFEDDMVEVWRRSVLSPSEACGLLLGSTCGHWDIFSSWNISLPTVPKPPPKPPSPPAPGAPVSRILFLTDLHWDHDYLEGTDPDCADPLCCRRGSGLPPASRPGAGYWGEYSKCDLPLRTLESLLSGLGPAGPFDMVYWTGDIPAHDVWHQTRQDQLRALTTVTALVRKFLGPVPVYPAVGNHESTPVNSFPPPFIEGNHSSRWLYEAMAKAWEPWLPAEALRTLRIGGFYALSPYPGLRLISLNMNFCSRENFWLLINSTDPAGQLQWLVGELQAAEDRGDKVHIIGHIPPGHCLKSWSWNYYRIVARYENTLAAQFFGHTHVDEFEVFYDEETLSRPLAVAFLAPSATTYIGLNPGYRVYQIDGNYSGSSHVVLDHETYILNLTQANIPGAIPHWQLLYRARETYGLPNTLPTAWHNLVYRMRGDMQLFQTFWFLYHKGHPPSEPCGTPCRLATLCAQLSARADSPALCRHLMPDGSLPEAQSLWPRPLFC
Protocol: FIGS. 20A-B. Cultured human endothelial cells secrete abundant amounts of S-SMase.
Smase Assay—As previously described (15), the standard 200-μl assay mixture consisted of up to 40 μl of sample (conditioned media or homogenized cells; see above, and a volume of assay buffer (0.1 M sodium acetate, pH 5.0) to bring the volume to 160 μl. The reaction was initiated by the addition of 40 μl substrate (50 pmol [^3H]sphingomyelin) in 0.25 M sucrose containing 3% Triton X-100 (final concentration of Triton X-100 in the 200-μl assay mix=0.6%). When added, the final concentrations of EDTA and Zn^2+ were 5 mM and 0.1 mM, respectively, unless indicated otherwise. The assay mixtures were incubated at 37° C. for no longer than 3 h and then extracted by the method of Bligh and Dyer (37); the lower, organic phase was harvested, evaporated under N2, and fractionated by TLC using chloroform:methanol (95:5). The ceramide spots were scraped and directly counted to quantify [^3H]ceramide. Typically, our assay reactions contained approximately 20 μg of cellular homogenate protein and a volume of conditioned media derived from a quantity of cells equivalent to approximately 50 μg of cellular protein.

Compound: IL-1β: human recombinant interleukin-1β
- L-SMase (lysosomal SMase) activity (L-SMase of HUVECs): decreased
- S-SMase bound to mannose-phosphate receptor column and eluted with mannose-6-phosphate [1]: 4.9%

Compound: [Cl-].[Cl-].[Zn+2] [Zn^2+, ZnCl2]
- stimulation of SMase secreted by endothelial cells by exogenous Zn2+ (S-SMase): two-fold
- increase of enzymatic activity of S-SMase by Zn2+ (S-SMase; S-SMase from IL-1β-treated HUVECs): 1.77±0.03 fold
- increase of enzymatic activity of S-SMase by Zn2+ (S-SMase; S-SMase from untreated HUVECs): 1.78±0.17 fold
